The values below come from patent US8541575B2, “3,4-diarylpyrazoles as protein kinase inhibitors” (Nerviano Medical Sciences S.R.L., priority 2008, dated 2013).

What is called IC50 is the midpoint of a concentration-inhibition curve.

A value given as a limit tells only on which side of the number the result lay.

Type in all cases: cell-based
For assay [1], the system named is p-MAPK (T202/Y204) in A375 human melanoma cells, having a mutated B-RAF. Put plainly: p-MAPK (T202/Y204) ArrayScan assay. To be noted: A-375, treated 1.5 or 2 hours, p-MAPK cytoplasmatic fluorescence, read-out: Array Scan A375 IC50. As to the method: p-MAPK (T202/Y204) ArrayScan Assay
A375 human melanoma cells, having a mutated B-RAF, are seeded in 384-well poly-lysine coated plates (Matrix) at a density of 1000 cells/well with appropriate medium supplemented with 10% FCS and incubated for 16-24 hours. Cells are treated for 1.5 or 2 hours with increasing doses of compounds (starting dose 10 μM, dilution factor 2.5). At the end of the treatment cells are fixed with p-formaldehyde 3.7% for 15-30 min, then washed twice with D-PBS […] and permeabilized with D-PBS containing 0.1% Triton X-100 and 1% BSA (Sigma-Aldrich) for 15 minutes at room temperature (staining solution). Anti-phospho-MAPK (T202/Y204) monoclonal antibody E10 (Cell Signaling, cat. #9106) diluted 1:100 is added in staining solution and incubated for 1 hour at 37° C. After removal of the primary antibody solution, the anti-mouse Cy™2-conjugated (Green) secondary antibody (Amersham) diluted 1:500 in staining solution containing 2 μg/ml DAPI is added. The plate is incubated for 1 hour at 37° C., washed twice and then red with Cellomics' ArrayScan VTI (4 fields/well, CytoNucTrans algorithm).
The parameter “MEAN_RingAvgIntenCh2”, which measures the mean cytoplasmatic fluorescence intensity associated to p-MAPK staining, is reported as the final result.

Assay [2] has as its system human melanoma cells A375 (with a mutated B-RAF). Put plainly: In vitro cell proliferation assay, A375. The settings on record: A-375, 72 hours treatment, cellular ATP readout. As to the method:
(§1) In Vitro Cell Proliferation Assay
(§2) Exponentially growing human melanoma cells A375 (with a mutated B-RAF) and human melanoma cells Mewo (with wild-type B-Raf) were seeded and incubated at 37° C. in a humidified 5% CO2 atmosphere. After 24 hours, scalar doses of the compound were added to the medium and cells oncubated for 72 hours. At the end of treatment, cells were washed and counted. Cell number was determined by a cellular adenosine triphosphate monitoring system. Cell proliferation was compared to control cells and the concentration inhibiting cell growth by 50% was calculated.

In assay [3] the test system is human melanoma cells Mewo (with wild-type B-Raf). Put plainly: In vitro cell proliferation assay, Mewo. To be noted: 72 hours treatment, cellular ATP readout. As to the method:
as §1, §2

In the case of `O=S(=O)(Nc1cccc(-c2n[nH]cc2-c2ccncc2)c1)c1ccco1` [Cmpd. 6, Furan-2-sulfonic acid [3-(4-pyridin-4-yl-1H-pyrazol-3-yl)-phenyl]amide], the half-maximal inhibitory concentration (IC50) in assay [1] was 5470 nM; in assay [2] it was 7520 nM; in assay [3], above 10000 nM.
Regarding `CC(C)Cn1cc(-c2ccncc2)c(-c2cccc(NC(=O)Nc3ccc(C(F)(F)F)cc3)c2)n1` [Cmpd. 50, 1-[3-(1-Isobutyl-4-pyridin-4-yl-1H-pyrazol-3-yl)-phenyl]-3-(4-trifluoromethyl-phenyl)-urea], the IC50 in assay [1] was 1120 nM; in assay [2], 1900 nM; in assay [3], 5090 nM.
Taken in the same sequence, the figures for `O=C(Cc1ccc(C(F)(F)F)cc1)Nc1cccc(-c2n[nH]cc2-c2ccncc2)c1` [Cmpd. 16, N-[3-(4-Pyridin-4-yl-1H-pyrazol-3-yl)-phenyl]-2-(4-trifluoromethyl-phenyl)-acetamide] were 1340 nM, 2890 nM and above 10000 nM.
For `Cn1cc(-c2ccncc2)c(-c2c(F)ccc(NS(=O)(=O)c3cc(F)ccc3F)c2F)n1` [compound 52, N-[3-(1-Methyl-4-pyridin-4-yl-1H-pyrazol-3-yl)-2,4-difluoro-phenyl]-2,5-difluoro-benzenesulfonamide], the IC50 in assay [1] was below 10 nM; in assay [2] it was 160 nM; in assay [3], above 10000 nM.
The matching figures for `O=C(CCCO)Nc1cc(-c2c[nH]nc2-c2cccc(NC(=O)Nc3ccc(C(F)(F)F)cc3)c2)ccn1` [compound 43, 4-hydroxy-N-(4-{3-[3-({[4-(trifluoromethyl)phenyl]carbamoyl}amino)phenyl]-1H-pyrazol-4-yl}pyridin-2-yl)butanamide]: 410 nM, 3500 nM and above 10000 nM.
On to `CCn1cc(-c2ccncc2)c(-c2c(F)ccc(NS(=O)(=O)c3cccc(F)c3)c2F)n1` [Cmpd. 58, N-[3-(1-Ethyl-4-pyridin-4-yl-1H-pyrazol-3-yl)-2,4-difluoro-phenyl]-3-fluoro-benzenesulfonamide], for which the figures for the IC50 in assay [1], in assay [2] and in assay [3] were 40 nM, 290 nM and above 10000 nM, respectively.
Taken in the same sequence, the figures for `O=S(=O)(Nc1cccc(-c2n[nH]cc2-c2ccncc2)c1)c1ccsc1` [Cmpd. 7, Thiophene-3-sulfonic acid [3-(4-pyridin-4-yl-1H-pyrazol-3-yl)-phenyl]-amide] were 5520 nM, 7380 nM and above 10000 nM.
Taken in the same sequence, the figures for `CC(=O)Nc1nccc(-c2c[nH]nc2-c2cccc(NC(=O)Nc3ccc(C(F)(F)F)cc3)c2)n1` [compound 32, N-(4-{3-[3-({[4-(trifluoromethyl)phenyl]carbamoyl}amino)phenyl]-1H-pyrazol-4-yl}pyrimidin-2-yl)acetamide] were 2510 nM, 5320 nM and above 10000 nM.
Taken in the same sequence, the figures for `CCOC(=O)n1cc(-c2ccncc2)c(-c2cccc(NC(=O)Nc3ccc(C(F)(F)F)cc3)c2)n1` [Cmpd. 47, 4-Pyridin-4-yl-3-{3-[3-(4-trifluoromethyl-phenyl)-ureido]-phenyl}-pyrazole-1-carboxylic acid ethyl ester] were 750 nM, 2660 nM and above 10000 nM.
In the case of `CCn1cc(-c2ccncc2)c(-c2c(F)ccc(NS(=O)(=O)c3cc(F)ccc3F)c2F)n1` [Cmpd. 51, N-[3-(1-Ethyl-4-pyridin-4-yl-1H-pyrazol-3-yl)-2,4-difluoro-phenyl]-2,5-difluoro-benzenesulfonamide], the IC50 in assay [1] is below 10 nM; in assay [2], below 20 nM; in assay [3] it was above 10000 nM.
The matching figures for `CNc1cc(-c2c[nH]nc2-c2c(F)ccc(NS(=O)(=O)c3cc(F)ccc3F)c2F)ccn1` [compound 53, N-{2,4-Difluoro-3-[4-(2-methylamino-pyridin-4-yl)-1H-pyrazol-3-yl]-phenyl}-2,5-difluoro-benzenesulfonamide]: 870 nM, 1750 nM and above 10000 nM.
Taken in the same sequence, the figures for `Nc1cc(-c2c[nH]nc2-c2cccc(NC(=O)Nc3ccc(C(F)(F)F)cc3)c2)ccn1` [compound 12, 1-{3-[4-(2-aminopyridin-4-yl)-1H-pyrazol-3-yl]phenyl}-3-[4(trifluoromethyl)-phenyl]urea] were 4650 nM, 5960 nM and above 10000 nM.
Taken in the same sequence, the figures for `CCCCn1cc(-c2ccncc2)c(-c2cccc(NC(=O)Nc3ccc(C(F)(F)F)cc3)c2)n1` [compound 49, 1-[3-(1-Butyl-4-pyridin-4-yl-1H-pyrazol-3-yl)-phenyl]-3-(4-trifluoromethyl-phenyl)-urea] were 1590 nM, 2610 nM and 4540 nM.
With `O=C(Nc1cccc(-c2nn(CCF)cc2-c2ccncc2)c1)Nc1ccc(Cl)c(C(F)(F)F)c1` [Cmpd. 5, 1-(4-Chloro-3-trifluoromethyl-phenyl)-3-{3-[1-(2-fluoro-ethyl)-4-pyridin-4-yl-1H-pyrazol-3-yl]-phenyl}-urea], the IC50 came to 2090 nM in assay [1], 4310 nM in assay [2] and 6760 nM in assay [3].
Taken in the same sequence, the figures for `O=S(=O)(Nc1ccc(F)c(-c2n[nH]cc2-c2ccncc2)c1F)c1ccco1` [Cmpd. 20, Furan-2-sulfonic acid [2,4-difluoro-3-(4-pyridin-4-yl-1H-pyrazol-3-yl)-phenyl]amide] were 5480 nM, 9140 nM and above 10000 nM.
The matching figures for `Nc1nccc(-c2c[nH]nc2-c2cccc(NS(=O)(=O)c3cc(F)ccc3F)c2)n1` [compound 34, N-{3-[4-(2-aminopyrimidin-4-yl)-1H-pyrazol-3-yl]phenyl}-2,5-difluorobenzene-sulfonamide]: 340 nM, 3180 nM and above 10000 nM.
Taken in the same sequence, the figures for `CCn1cc(-c2ccncc2)c(-c2c(F)ccc(NS(=O)(=O)c3ccccc3F)c2F)n1` [Cmpd. 57, N-[3-(1-Ethyl-4-pyridin-4-yl-1H-pyrazol-3-yl)-2,4-difluoro-phenyl]-2-fluoro-benzenesulfonamide] were 20 nM, 330 nM and above 10000 nM.
Turning to `CC(=O)Nc1cc(-c2c[nH]nc2-c2cccc(NC(=O)Nc3ccc(C(F)(F)F)cc3)c2)ccn1` [Cmpd. 17, N-[4-(3-{3-[3-(4-Trifluoromethyl-phenyl)-ureido]-phenyl}-1H-pyrazol-4-yl)-pyridin-2-yl]-acetamide], the IC50 in assay [1] is below 40 nM; in assay [2], 250 nM; in assay [3], 9400 nM.
Consider `O=S(=O)(Nc1ccc(F)c(-c2n[nH]cc2-c2ccncc2)c1F)c1cc(F)ccc1F` [Cmpd. 18, N-[2,4-Difluoro-3-(4-pyridin-4-yl-1H-pyrazol-3-yl)-phenyl]-2,5-difluoro-benzenesulfonamide], for which the IC50 in assay [1] was 360 nM; in assay [2], 720 nM; in assay [3], above 10000 nM.
Taken in the same sequence, the figures for `O=C(Nc1ccc(C(F)(F)F)cc1)Nc1cccc(-c2n[nH]cc2-c2ccncc2)c1` [Cmpd. 1, 1-[3-(4-Pyridin-4-yl-1H-pyrazol-3-yl)-phenyl]-3-(4-trifluoromethyl-phenyl)-urea] were 930 nM, 1020 nM and 8600 nM.
